From PubChem BioAssay AID489040 (Sanford-Burnham Center for Chemical Genomics, 2010) come the findings set out here.

Activity calls are given as the source filed them.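 Rule for the calls: active = mean half-maximal activating concentration from the dose-response fit at or below a set limit; inactive = the rest.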 A value given as a limit tells only on which side of the number the result lay.

For this test, the target named is CHO-XBP1 luciferase reporter, IRE1-XBP1 UPR activation. Description: XBP1 luciferase reporter activation – CHO-XBP1 cells, luminescence, counter-screen for apoptotic UPR arm activators, dose response (AID 489040).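 Note: reporter read after six hours of compound exposure.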
Regarding `O=C(N/N=C(\c1ccccc1)c1cccnc1)c1cccc(F)c1`, the EC50 was > 80 µM (inactive).
With `CCc1cc2c(=O)c(-c3cnn(-c4ccccc4)c3)c(C)oc2cc1OCC(=O)Nc1cccc(C)c1` the entry was “inactive”; with `Cc1ccc(Sc2ccc(/C=C3/C(=O)NN(c4ccccc4)C3=O)o2)cc1`, > 80 µM (inactive).
With `O=c1[nH]c(-c2ccc(-c3cccc(Cl)c3)o2)nc2ccccc12` the figure was 15 µM; with `CC(C)(C)N1CSC(=S)N(Cc2ccccc2)C1`, > 80 µM (inactive).
With `COc1ccc(/C=C/C(=O)c2ccc(C(=O)/C=C/c3ccc(OC)c(OC)c3)cc2)cc1OC` the figure was > 80 µM (inactive).
For `O=C(/C=C/Sc1ccccc1)c1ccc(Cl)cc1`, the EC50 was > 80 µM (inactive).
As for `O=[N+]([O-])c1ccc2nc(Cl)nc(-c3ccccc3)c2c1`, the figure is > 80 µM (inactive); as for `COc1ccc(C(=O)Cn2c(C(=O)/C=C/c3ccccc3)nc3ccccc32)cc1`, > 80 µM (inactive); as for `CSc1nnc(NC(=O)c2nc(S(=O)(=O)Cc3ccccc3F)ncc2Cl)s1`, > 80 µM (inactive).
For `CCN(CC)c1ccc(/C=C2\C(=O)N(c3nnc(C)c(=O)[nH]3)N=C2C)cc1`, the EC50 is > 80 µM (inactive).
Turning to `Cc1ccc(S/C=C\C(=O)c2ccccc2)cc1`, the EC50 was > 80 µM (inactive).
For `CN(c1ccccc1)S(=O)(=O)c1cccc(C(=O)NCCc2ccc(O)c(O)c2)c1`, the EC50 is 9.81 µM.
As for `CCC(=O)Nc1ccc(C(=O)Cn2ncc(Cl)c(Cl)c2=O)cc1`, the figure is > 80 µM (inactive); as for `Cc1ccc(Cc2cnc(NC(=O)/C(C#N)=C/c3ccc(-c4cccc([N+](=O)[O-])c4)o3)s2)cc1`, 9.32 µM; as for `Cc1ccc(/C=C2\CCC3=C2OC(N)=C(C#N)C3c2ccc(C)cc2)cc1` (configuration not stated), > 80 µM (inactive).
`CCOc1ccc(-c2nnc(SCC(=O)Nc3ccc4c(c3)c3ccccc3n4CC)n2N)cc1`: the EC50 was > 80 µM (inactive).
As for `O=[N+]([O-])c1cc(-c2ncccn2)c([N+](=O)[O-])s1`, the EC50 was > 80 µM (inactive).
With `CC1(C)C=Cc2c(c3c(c4c(=O)c(-c5ccc(O)cc5)coc24)OC(C)(C)CC3)O1` the entry was “inactive”; with `CCOC(=O)c1sc(NC(=S)NC(=O)c2ccccc2)c(C(=O)OCC)c1C`, > 80 µM (inactive).
As for `Cc1cc(NC(=O)c2cc(-c3ccccn3)nc3ccc(Br)cc23)no1`, the figure is > 80 µM (inactive).
As to `COc1ccc(C(=O)C(CN2CCCC2)c2ccccc2)cc1` (configuration not stated), the EC50 is > 80 µM (inactive).
Consider `COc1cccc(N=Nc2ccc(O)c3ncccc23)c1`, for which the EC50 is > 80 µM (inactive).
As for `COc1cc([N+](=O)[O-])cc(/C=N/NC(=O)c2ccc(NC(=O)c3ccc(C)cc3)cc2)c1O`, the figure is > 80 µM (inactive); as for `COc1ccc(-c2cc3ccccc3oc2=O)cc1NC(=S)NC(=O)c1ccc2c(c1)OCCO2`, 4.27 µM.
As for `CCOC(=O)c1c(CSC(=N)N)n(-c2ccc(C)cc2)c2cc(Br)c(OC(C)=O)cc12`, the figure is > 80 µM (inactive); as for `Cc1ccc(C(=O)NC(C#N)=C(Cl)Cl)cc1`, > 80 µM (inactive).
Turning to `N#C/C(=C\c1ccc(OCc2ccccc2)cc1)C(=O)Nc1nc2c(s1)CCN(Cc1ccccc1)C2`, the EC50 was > 80 µM (inactive).
On to `CN1C(=O)NC(=O)/C(=C\C=C\c2ccccc2[N+](=O)[O-])C1=O`, for which the EC50 was > 80 µM (inactive).
For `Cc1ccc(-c2nc(N/N=C/c3cccc([N+](=O)[O-])c3)c3ccccc3n2)cc1`, the EC50 was > 80 µM (inactive).
In the case of `Cc1ccn2cc(-c3ccc(O)c(O)c3)nc2c1`, the EC50 was > 80 µM (inactive).
As for `CC(=O)Nc1ccc(N=Cc2c(O)c(C(=O)Nc3ccccc3)cc3ccccc23)cc1`, the entry is “inactive”.
`CC1CCN(Cc2c(C(=O)N/N=C/c3ccc(C(C)(C)C)cc3)nnn2-c2nonc2N)CC1`: the EC50 was > 80 µM (inactive).
With `Cc1ccc2[nH]cc(C(=O)CCl)c2c1` the figure was > 80 µM (inactive).
In the case of `O=C(Nc1ccc(C(F)(F)F)cc1)c1cc(-c2cccnc2)nc2ccc(Br)cc12`, the EC50 was 6.29 µM.
Turning to `COc1ccc(/C=C2\CN(Cc3ccccc3)C/C(=C\c3ccc(OC)c(O)c3)C2=O)cc1O`, the EC50 was > 80 µM (inactive).
On to `COc1ccc(C(=O)Nc2ccccc2C(=O)N/N=C/c2ccccn2)cc1OC`, for which the EC50 was > 80 µM (inactive).
As for `CC1=NOC(=O)/C1=C/c1ccc(-c2ccc(Cl)cc2)o1`, the figure is > 80 µM (inactive).
In the case of `Cc1cccc(CS(=O)(=O)c2ncc(Cl)c(C(=O)Nc3ccc(F)cc3)n2)c1`, the EC50 was > 80 µM (inactive).
As for `CC(=O)c1ccc(NC(=O)COC(=O)c2ccccc2N=Nc2ccc(N(C)C)cc2)cc1`, the EC50 is 4.12 µM.
As for `C/C(=N\NC(=O)c1ccc(F)cc1)c1ccccn1`, the figure is > 80 µM (inactive); as for `COc1ccc(NC(=O)c2nc(S(=O)(=O)Cc3cccc(C)c3)ncc2Cl)c(OC)c1`, > 80 µM (inactive).
With `c1ccc(CSC2=NNC(c3ccccn3)S2)cc1` (configuration not stated) the figure was > 80 µM (inactive).
As for `COc1cc(/C=C2\COC/C(=C\c3ccc(O)c(OC)c3)C2=O)ccc1O`, the figure is > 80 µM (inactive); as for `Cn1c(SCC(=O)NCC2CCCO2)ncc(C(=O)Nc2ccc(Cl)cc2)c1=O` (configuration not stated), > 80 µM (inactive); as for `O=[N+]([O-])c1ccc(N/N=C/c2cccc(O)c2O)c(S(=O)(=O)N2CCOCC2)c1`, “inactive”.
Take `CC(C)N=c1scc(-c2ccco2)n1/N=C/c1ccc(O)c(O)c1`: the EC50 is 4.51 µM.
With `O=[N+]([O-])c1ccc(C=Nc2ccc(Cl)c([N+](=O)[O-])c2)s1` the figure was > 80 µM (inactive).
Consider `Oc1[nH]c2ccc(Br)cc2c1N=NC(=S)N1CCOCC1`, for which the EC50 is > 80 µM (inactive).
With `O=C(CCl)Nc1cc(S(=O)(=O)N2CCCCCC2)ccc1Cl` the figure was > 80 µM (inactive); with `CC1=NOC(=O)/C1=C\c1ccc(-c2ccc(Cl)cc2Cl)o1`, > 80 µM (inactive); with `CC1(C)CC(=O)C2=C(C1)Oc1nc3ccccc3cc1C2C(C#N)C#N` (configuration not stated), > 80 µM (inactive).

The term EC50 denotes the concentration that produces a half-maximal response.
